Columns and labels:
[1] = test system: spared nerve injury model of peripheral neuropathic pain; test: Spared Nerve Injury model (SNI model), treatment day 10 to 21 postoperatively (Example 1); format: in vivo, rats; conditions: for reduction of allodynia: day 10 to 21 postoperatively
Text: (§1) The Chronic Constriction Injury model (CCI model) [Bennet G J, Xie Y K: A peripheral mononeuropathy in rat that produces disorders of pain sensation like those seen in man. Pain 1988, 33:87-107] and the Spared Nerve Injury model (SNI model) [Decosterd I, Woolf C J: Spared Nerve injury: an animal model of persistent peripheral neuropathic pain. Pain 2000, 87:149-158] were used as animal models that show essential elements of the clinical pain syndromes in the presence of neuropathies. In both models, the animals sustain defined nerve damage by surgical means. The pain behavior of the animals can be used to quantitatively measure the efficacy of substances in pain-associated neuropathies. The investigations were carried out on rats according to the published models. […] The same is not true of most other species of laboratory animals.
(§2) In a first series of experiments, the animals sustained a nerve lesion by surgical means according to the SNI model and according to the CCI model. From day 10 to day 21 postoperatively, groups of 12 animals each received intraperitoneal administrations of the test substances twice daily. In tests according to the SNI model, in each application, 2.5, 4.5 or 9 mg tarenflurbil (referred to as RF2.5, RF4.5, and RF9), 4.5 mg S-flurbiprofen (SF4.5), pure vehicle (vehicle—as control) or 25 mg gabapentin (Gaba25—as reference substance), each per kg of body weight, were administered. The behavioral parameters that are typical of pain-associated neuropathies were measured, namely mechanical allodynia using Frey's aestesiometer, cold allodynia using the acetone test, and cold hyperalgesia using the cold plate at 2° C. In tests according to the CCI model, 4.5 or 9 mg/kg body weight of tarenflurbil (RF4.5 and RF9), 9 mg/kg body weight S-flurbiprofen (SF9) or vehicle (vehicle) were administered per group. As before, mechanical/static allodynia, cold allodynia and cold hyperalgesia were measured using Frey's hair test, the acetone test, and the cold plate at 2° C., respectively.

[2] = test system: chronic constriction injury model of peripheral neuropathic pain; test: Chronic Constriction Injury model (CCI model), treatment day 10 to 21 postoperatively (Example 1); format: in vivo; conditions: rats
Text: as §1, §2

[3] = parameters: species or system rats; conditions: rat, in vivo, ip, 4.5 mg/kg
[4] = test system: spared nerve injury model of peripheral neuropathic pain; test: SNI model, treatment from the first postoperative day for two weeks (Example 2); format: in vivo, rats
Protocol: In another series of experiments, animals having sustained nerve damage according to the SNI model were treated twice daily with intraperitoneal doses of 9 mg/kg body weight tarenflurbil or vehicle from the first postoperative day and for a period of two weeks. Both the mechanical dynamic allodynia (on the ipsilateral and on the contralateral side) and the cold allodynia (ipsilateral only) were measured by means of Frey's aesthesiometer and the cold plate at 10° C., respectively.

[5] = test system: rats that had not sustained damage; test: Single dose in rats that had not sustained damage (Example 3); format: in vivo; conditions: undamaged rats, single i.p. dose of 9 mg/kg, up to 6 hours after application
Protocol: For qualification of the series' of experiments mentioned above, a single dose of 9 mg/kg body weight tarenflurbil (RF9) or vehicle (vehicle) was applied intraperitoneally in another series of experiments on rats that had not sustained damage and the mechanical allodynia and the heat sensitivity were measured for up to 6 hours after the application using Frey's aesthesiometer and the Hargreaves model, respectively. […] This means that the effects measured for tarenflurbil in Examples 1 and 2 are exclusively related to the effect in pain-associated neuropathies.

[6] = humans; cited from earlier work
[7] = rats; cited from earlier work
[8] = SNI model, rats, 4.5 mg/kg twice daily i.p.
[9] = summary statement for the pharmacological models

Row | Structure (SMILES) | effect on allodynia compared with tarenflurbil ([1]; SNI model, rats, 25 mg/kg twice daily i.p., positive control) | reduction of allodynia [1, 8] | effect in models of pain-associated neuropathies [1, 9] | reduction of allodynia ([2]; 9 mg/kg twice daily i.p.) | gastrointestinal bleeding [3] | reduction of allodynia ([1]; SNI model, rats, 9 mg/kg twice daily i.p.) | efficacy relative to reference substance gabapentin ([1]; if dosed sufficiently, vs 25 mg/kg body weight gabapentin) | effect in models of pain-associated neuropathies (dose dependence) [1, 9] | reduction of allodynia ([2]; 4.5 mg/kg twice daily i.p.) | mechanical allodynia, contralateral side, vs vehicle ([4]; 9 mg/kg twice daily i.p. from first postoperative day for two weeks) | mechanical allodynia, ipsilateral side, vs vehicle ([4]; 9 mg/kg twice daily i.p. from first postoperative day, entire treatment period of two weeks, Frey's aesthesiometer) | cold allodynia, ipsilateral side, vs vehicle ([4]; 9 mg/kg twice daily i.p. from first postoperative day, entire treatment period of two weeks, cold plate at 10° C.) | time until pain-relieving effect falls to pain intensity of the vehicle group ([4]; after completion of two weeks of 9 mg/kg twice daily i.p.) | mechanical allodynia vs vehicle ([5]; Frey's aesthesiometer) | heat sensitivity vs vehicle ([5]; Hargreaves model) | inversion of the R-form to the S-form under in vivo conditions [6] | inversion of tarenflurbil to S-flurbiprofen [7]
1 | NCC1(CC(=O)O)CCCCC1 [Gabapentin, gabapentin, reference compound] | no significant difference from tarenflurbil | – | – | – | – | – | – | – | – | – | – | – | – | – | – | – | –
2 | C[C@H](C(=O)O)c1ccc(-c2ccccc2)c(F)c1 [S-flurbiprofen, reference compound] | – | no significant effect | does not show a significant effect | no significant effect | gastrointestinal bleeding in some animals | – | – | – | – | – | – | – | – | – | – | – | –
3 | C[C@@H](C(=O)O)c1ccc(-c2ccccc2)c(F)c1 [tarenflurbil] | – | significant reduction | – | significant reduction | – | significant reduction | in the range of the efficacy of 25 mg/kg body weight gabapentin | dose-dependent effect | significant reduction | no difference | significantly different effect from vehicle | significantly different effect from vehicle | eight days after the end of treatment | no significant differences | no significant differences | no or no more than extremely minor inversion | basically do not invert

From US20090162421A1, “DRUGS AS WELL AS THEIR PRODUCTION AND USE IN THE TREATMENT OF PAIN-ASSOCIATED NEUROPATHIES” (PAZ Arzneimittel-Entwicklungsgesellschaft mbH, priority 2007, published 2009)
